Measured values: ChEMBL document CHEMBL4842311, “Novel Mechanistic Observations and NES-Binding Groove Features Revealed by the CRM1 Inhibitors Plumbagin and Oridonin” (J Nat Prod, 2021)
Calls of active or inactive are those of the source. The rule behind the calls is not given here.

Columns and labels:
[1] = system: Exportin-1 (Homo sapiens), O14980 [C528S]; experiment: Inhibition of human CRM1-C528S mutant assessed as C528 conjugation at 20 uM incubated for 2 hrs before binding by coomassie blue staining based pull-down assay
Exportin-1 (Homo sapiens), O14980 [C528S], sequence (O14980 whole entry C528S, the tested form may be a part): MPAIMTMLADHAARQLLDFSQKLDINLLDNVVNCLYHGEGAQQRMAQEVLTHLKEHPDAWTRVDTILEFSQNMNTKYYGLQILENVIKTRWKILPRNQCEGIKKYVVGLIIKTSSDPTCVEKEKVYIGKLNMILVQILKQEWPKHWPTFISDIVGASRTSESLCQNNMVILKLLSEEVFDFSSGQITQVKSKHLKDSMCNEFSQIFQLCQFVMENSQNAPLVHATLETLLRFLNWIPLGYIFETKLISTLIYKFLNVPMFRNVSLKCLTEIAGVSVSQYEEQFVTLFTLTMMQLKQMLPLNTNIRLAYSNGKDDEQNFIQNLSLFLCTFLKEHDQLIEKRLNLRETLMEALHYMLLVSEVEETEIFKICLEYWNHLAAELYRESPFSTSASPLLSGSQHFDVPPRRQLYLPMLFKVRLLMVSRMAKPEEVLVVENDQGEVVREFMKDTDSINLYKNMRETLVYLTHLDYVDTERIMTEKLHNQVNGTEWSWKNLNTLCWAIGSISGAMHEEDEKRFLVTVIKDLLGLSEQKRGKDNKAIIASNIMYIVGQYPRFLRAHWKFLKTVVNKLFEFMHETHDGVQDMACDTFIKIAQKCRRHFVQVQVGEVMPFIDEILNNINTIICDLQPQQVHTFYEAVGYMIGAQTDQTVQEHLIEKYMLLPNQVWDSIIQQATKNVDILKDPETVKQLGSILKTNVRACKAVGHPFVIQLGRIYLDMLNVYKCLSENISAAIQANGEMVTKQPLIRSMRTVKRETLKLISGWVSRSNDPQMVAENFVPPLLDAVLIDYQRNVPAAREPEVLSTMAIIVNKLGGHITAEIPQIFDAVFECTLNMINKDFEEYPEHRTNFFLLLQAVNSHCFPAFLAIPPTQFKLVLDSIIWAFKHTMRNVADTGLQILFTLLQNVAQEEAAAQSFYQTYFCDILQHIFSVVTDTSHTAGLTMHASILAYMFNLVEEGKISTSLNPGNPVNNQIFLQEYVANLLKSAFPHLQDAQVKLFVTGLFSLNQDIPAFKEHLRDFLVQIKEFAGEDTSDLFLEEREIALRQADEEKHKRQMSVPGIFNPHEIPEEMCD

[2] = system: Saccharomyces cerevisiae; experiment: Inhibition of Yeast GST-tagged/TEV cleavage site fused CRM1 C152/C539/D1034A triple mutant expressed in Escherichia coli BL21 (DE3) assessed as decrease in NES binding at 60 uM measured after 2 hrs by coomassie blue staining based pull-down assay
[3] = molecular target: Exportin-1 (Homo sapiens) (UniProt O14980); experiment: Inhibition of human wild type CRM1 assessed as C528 conjugation at 20 uM incubated for 2 hrs before binding by coomassie blue staining based pull-down assay
Exportin-1 (Homo sapiens), sequence (O14980 whole entry, the tested form may be a part): as the sequence (O14980 whole entry C528S, the tested form may be a part) above, with S528C counted along it

[4] = molecular target: Exportin-1 (Homo sapiens) (UniProt O14980); experiment: Inhibition of human CRM1-WT assessed as C528 conjugation at 1 uM incubated for 2 hrs before binding by coomassie blue staining based pull-down assay
[5] = system: Saccharomyces cerevisiae; experiment: Inhibition of Yeast GST-tagged/TEV cleavage site fused CRM1 C152/C539 double mutant expressed in Escherichia coli BL21 (DE3) assessed as C1022 conjugation mediated NES inhibition at 60 uM measured after 2 hrs by coomassie blue staining based pull-down assay

SMILES | inhibition [1] | inhibition [2] | inhibition [3] | inhibition [4] | inhibition [5]
CC1=CC(=O)c2c(O)cccc2C1=O | Active | Active | Active |  | 
C=C1C(=O)[C@]23[C@H](O)[C@H]1CC[C@H]2[C@@]12CO[C@]3(O)[C@@H](O)[C@@H]1C(C)(C)CC[C@@H]2O | Active | Active | Active | inactive | Active
O=C(/C=C\n1cnc(-c2cc(C(F)(F)F)cc(C(F)(F)F)c2)n1)NNc1cnccn1 | Active |  | Active |  | 
